Laboratory results: patent US8975417B2, “Pyrazolopyrrolidine derivatives and their use in the treatment of disease” (Novartis AG, priority 2013, dated 2015)

Assays:
[1] = target: nuclear BRD4-NUT foci in HCC2494 NUT midline carcinoma cells (Homo sapiens (Human), UniProt O60885+Q86Y26); assay: Nut-foci formation assay; type: cell-based; conditions: 24 hours, read-out: HCS Brd4-NUT IC50
How it was run: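 HCC2494 cells carrying BRD4-NUT, treated 24 h at 37 °C with 3-fold dilutions from 10 μM. Fixed and stained with anti-NUT antibody, imaged automatically to count nuclear foci per nucleus.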

[2] = target: His-CREBBP (1081-1197) bromodomain (Homo sapiens (Human), UniProt Q92793); assay: AlphaScreen in-vitro binding assay for CREBBP; conditions: biochemical
His-CREBBP (1081-1197) bromodomain, sequence (Q92793 1081-1197): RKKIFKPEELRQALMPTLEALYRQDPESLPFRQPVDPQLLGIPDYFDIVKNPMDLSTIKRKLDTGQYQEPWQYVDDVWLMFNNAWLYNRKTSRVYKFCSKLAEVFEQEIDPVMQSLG
How it was run: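 Ni-chelate acceptor and streptavidin donor beads (45 µg/mL each, in 50 mM HEPES pH 7.5, 150 mM NaCl, 0.02% BSA) were then added for 60 min at room temperature. IC50 came from 8-point non-linear regression.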

His-Brd4(44-477) = His-Brd4(44-477) (Homo sapiens (Human), UniProt O60885); assay: TR-FRET in-vitro binding assay for BRD4; conditions: biochemical
How it was run: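 His-tagged BRD2(60-472), BRD3(20-477) or BRD4(44-477), 45 nM in dispensing solution, with 60 nM tetra-acetylated histone H4 peptide (AcK5/8/12/16) in dispensing solution; HEPES pH 7.5, 50 mM NaCl, 0.1% BSA, 30 °C, 35 min. Eu-anti-His6 antibody plus streptavidin-APC added for TR-FRET read-out; 8-point compound dilutions.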

IC50 [1] | IC50 [2] | IC50 (His-Brd4(44-477)) | Structure (SMILES)
44.3 nM | 2500 nM | 47 nM | CCc1nn(-c2ccnn2C)c2c1C(c1ccc(Cl)cc1)N(c1cc(C)c(=O)n(C)c1)C2=O (stereo not drawn) [Example 89, 4-(4-chlorophenyl)-5-(1,5-dimethyl-6-oxo-1,6-dihydropyridin-3-yl)-3-ethyl-1-(1-methyl-1H-pyrazol-5-yl)-4,5-dihydropyrrolo[3,4-c]pyrazol-6(1H)-one]
17.9 nM | 3100 nM | 27 nM | Cc1cc(N2C(=O)c3nn(C4CC4)c(C)c3C2c2ccc(Cl)cc2)cn2c(C)nnc12 (stereo not drawn) [Example 93, 4-(4-chlorophenyl)-2-cyclopropyl-5-(3,8-dimethyl-[1,2,4]triazolo[4,3-a]pyridin-6-yl)-3-methyl-4,5-dihydropyrrolo[3,4-c]pyrazol-6(2H)-one]
21.9 nM | 650 nM | 24 nM | Cc1nn(C2CCC2)c2c1C(c1ccc(Cl)cc1)N(c1cc(C)c(=O)n(C)c1)C2=O (stereo not drawn) [Example 94, 4-(4-chlorophenyl)-1-cyclobutyl-5-(1,5-dimethyl-6-oxo-1,6-dihydropyridin-3-yl)-3-methyl-4,5-dihydropyrrolo[3,4-c]pyrazol-6(1H)-one]
191 nM | 7700 nM | 64 nM | Cc1nn(C2CC2)c2c1C(c1ccc(OC(F)(F)F)cc1)N(c1cc(C)c(=O)n(C)c1)C2=O (stereo not drawn) [Example 95, 1-cyclopropyl-5-(1,5-dimethyl-6-oxo-1,6-dihydropyridin-3-yl)-3-methyl-4-(4-(trifluoromethoxy)phenyl)-4,5-dihydropyrrolo[3,4-c]pyrazol-6(1H)-one]
2010 nM | 18000 nM | 780 nM | Cc1nn(C2CC2)c2c1C(c1cccc(C(F)(F)F)c1)N(c1cc(C)c(=O)n(C)c1)C2=O (stereo not drawn) [Example 96, 1-cyclopropyl-5-(1,5-dimethyl-6-oxo-1,6-dihydropyridin-3-yl)-3-methyl-4-(3-(trifluoromethyl)phenyl)-4,5-dihydropyrrolo[3,4-c]pyrazol-6(1H)-one]
145 nM | 3600 nM | 89 nM | Cc1nn(C2CC2)c2c1C(c1ccc(C(F)(F)F)cc1)N(c1cc(C)c(=O)n(C)c1)C2=O (stereo not drawn) [Example 97, 1-cyclopropyl-5-(1,5-dimethyl-6-oxo-1,6-dihydropyridin-3-yl)-3-methyl-4-(4-(trifluoromethyl)phenyl)-4,5-dihydropyrrolo[3,4-c]pyrazol-6(1H)-one]
8860 nM | > 37000 nM | 7800 nM | COc1ncc(-n2nc(C)c3c2C(=O)N(c2cc(C)c(=O)n(C)c2)[C@H]3c2ccc(Cl)cc2)c(OC)n1 [Example 99, (S)-4-(4-chlorophenyl)-1-(2,4-dimethoxypyrimidin-5-yl)-5-(1,5-dimethyl-6-oxo-1,6-dihydropyridin-3-yl)-3-methyl-4,5-dihydropyrrolo[3,4-c]pyrazol-6(1H)-one]
42.1 nM | 4200 nM | 25 nM | COc1ncc(-n2nc(C)c3c2C(=O)N(c2cc(C)c(=O)n(C)c2)[C@@H]3c2ccc(Cl)cc2)c(OC)n1 [Example 100, (R)-4-(4-chlorophenyl)-1-(2,4-dimethoxypyrimidin-5-yl)-5-(1,5-dimethyl-6-oxo-1,6-dihydropyridin-3-yl)-3-methyl-4,5-dihydropyrrolo[3,4-c]pyrazol-6(1H)-one]
66.1 nM | 19000 nM | 34 nM | COc1ncccc1-n1nc(C)c2c1C(=O)N(c1cc(C)c3nnc(C)n3c1)C2c1ccc(Cl)cc1 (stereo not drawn) [Example 101, 4-(4-chlorophenyl)-5-(3,8-dimethyl-[1,2,4]triazolo[4,3-a]pyridin-6-yl)-1-(2-methoxypyridin-3-yl)-3-methyl-4,5-dihydropyrrolo[3,4-c]pyrazol-6(1H)-one]
230 nM | > 37000 nM | 59 nM | Cc1nn(C2CC2)c2c1C(c1ccc(Cl)cc1)N(c1ccc3nnn(C)c3n1)C2=O (stereo not drawn) [Example 102, 4-(4-chlorophenyl)-1-cyclopropyl-3-methyl-5-(3-methyl-3H-[1,2,3]triazolo[4,5-b]-pyridin-5-yl)-4,5-dihydropyrrolo[3,4-c]pyrazol-6(1H)-one]
> 10000 nM | > 37000 nM | 11000 nM | Cc1nn(C(C)C)c2c1[C@H](c1ccc(Cl)cc1)N(c1cc(C)c(=O)n(C)c1)C2=O [Example 103, (S)-4-(4-chlorophenyl)-5-(1,5-dimethyl-6-oxo-1,6-dihydropyridin-3-yl)-1-isopropyl-3-methyl-4,5-dihydropyrrolo[3,4-c]pyrazol-6(1H)-one]
11.3 nM | 1200 nM | 13 nM | Cc1nn(C(C)C)c2c1[C@@H](c1ccc(Cl)cc1)N(c1cc(C)c(=O)n(C)c1)C2=O [Example 104, (R)-4-(4-chlorophenyl)-5-(1,5-dimethyl-6-oxo-1,6-dihydropyridin-3-yl)-1-isopropyl-3-methyl-4,5-dihydropyrrolo[3,4-c]pyrazol-6(1H)-one]
98.6 nM | > 37000 nM | 68 nM | CCc1nn(C)c2c1C(c1ccc(Cl)cc1)N(c1cc(OC)c3nnc(C)n3c1)C2=O (stereo not drawn) [Example 105, 4-(4-chlorophenol)-3-ethyl-5-(8-methoxy-3-methyl-[1,2,4]triazolo[4,3-a]pyridin-6-yl)-1-methyl-4,5-dihydropyrrolo[3,4-c]pyrazol-6(1H)-one]
2240 nM | > 37000 nM | 2200 nM | CCc1nn(C2CC2)c2c1[C@H](c1ccc(Cl)cc1)N(c1cc(C)c3nnc(C)n3c1)C2=O [Example 106, (S)-4-(4-chlorophenyl)-1-cyclopropyl-5-(3,8-dimethyl-[1,2,4]triazolo[4,3-a]pyridin-6-yl)-3-ethyl-4,5-dihydropyrrolo[3,4-c]pyrazol-6(1H)-one]
2.9 nM | 6900 nM | < 11 nM | CCc1nn(C2CC2)c2c1[C@@H](c1ccc(Cl)cc1)N(c1cc(C)c3nnc(C)n3c1)C2=O [Example 107, (R)-4-(4-chlorophenyl)-1-cyclopropyl-5-(3,8-dimethyl-[1,2,4]triazolo[4,3-a]pyridin-6-yl)-3-ethyl-4,5-dihydropyrrolo[3,4-c]pyrazol-6(1H)-one]
635 nM | > 37000 nM | 140 nM | CCc1nn(CCOCC(F)(F)F)c2c1C(c1ccc(Cl)cc1)N(c1cc(OC)c3nnc(C)n3c1)C2=O (stereo not drawn) [Example 108, 4-(4-chlorophenyl)-3-ethyl-5-(8-methoxy-3-methyl-[1,2,4]triazolo[4,3-a]pyridin-6-yl)-1-(2-(2,2,2-trifluoroethoxy)ethyl)-4,5-dihydropyrrolo[3,4-c]pyrazol-6(1H)-one]
43.8 nM | > 37000 nM | 17 nM | COc1ncccc1-n1nc(C)c2c1C(=O)N(c1cc(C)c3nnn(C)c3n1)C2c1ccc(Cl)cc1 (stereo not drawn) [Example 109, 4-(4-chlorophenyl)-5-(3,7-dimethyl-3H-[1,2,3]triazolo[4,5-b]pyridin-5-yl)-1-(2-methoxypyridin-3-yl)-3-methyl-4,5-dihydropyrrolo[3,4-c]pyrazol-6(1H)-one]

Structure (SMILES) | IC50 [1] | IC50 [2] | IC50 (His-Brd4(44-477))
Cc1nn(-c2ccnn2C)c2c1C(c1ccc(Cl)cc1)N(c1cc(C)c3nnc(C)n3c1)C2=O (stereo not drawn) [Example 90, 4-(4-chlorophenyl)-5-(3,8-dimethyl-[1,2,4]triazolo[4,3-a]pyridin-6-yl)-3-methyl-1-(1-methyl-1H-pyrazol-5-yl)-4,5-dihydropyrrolo[3,4-c]pyrazol-6(1H)-one] | 45 nM | > 37000 nM | 15 nM
